{
  "source": "paper PMC10251204",
  "about": "“Medicago Sativa Defensin1 as a tumor sensitizer for improving chemotherapy: translation from anti-fungal agent to a potential anti-cancer agent” (Frontiers in Oncology, 2023)",
  "key": {"[1]": {"assay": "IC50 of NBD-labelled peptide, cell line not stated", "type": "cell-based", "conditions": "similar to native MsDef1", "experimental": "(§1) Cell viability was evaluated by the standard MTT ([…])-2,5-diphenyltetrazolium bromide, Sigma) method. All cancer cells (MDA-MB-231, MCF-7, MCF-R, Hela, MCF-10A epithelial breast cells, induced pluripotent stem cells derived cardiomyocytes (iPSc) were added to the wells of 96-well flat-bottom plates at the density of 2×10^4 per well, allowed to attach overnight, and treated with different concentrations of MsDef1 (1-100 µM). After 24 h, 10 µl of MTT solution was added to each well and the plate was incubated at 37°C for 3 h. After removing the media, 200 µl of isopropanol were added to dissolve the crystals. Absorbance was read at 550 nm in an ELISA plate reader (Sunrise, Tecan, Milan, Italy), and the results are expressed as relative change with respect to the controls set as 100%. For cardiomyocytes, human iPSCs were used (Ionic Transports, St Louis)."}, "[2]": {"system": "resistant TNBC MDA-MB-231R cells", "assay": "NBD-MsDef1 uptake by confocal microscopy, MDA-MB-231R", "type": "cell-based", "conditions": "15 min at 37°C, 20, 6.6 or 2.2 µg/ml, N=4"}, "[3]": {"system": "ovarian SKOV3 cells", "assay": "NBD-MsDef1 uptake by confocal microscopy, SKOV3", "type": "cell-based", "conditions": "15 min at 37°C, 20, 6.6 or 2.2 µg/ml, N=4"}, "[4]": {"system": "normal epithelial breast cells (MCF-10A)", "assay": "NBD-MsDef1 uptake by confocal microscopy, MCF-10A", "type": "cell-based", "parameters": "dose or concentration left out as unconfirmed", "conditions": "even at 5-fold higher dose"}, "[5]": {"system": "fibroblasts cells", "assay": "NBD-MsDef1 uptake by confocal microscopy, fibroblasts", "type": "cell-based", "parameters": "dose or concentration left out as unconfirmed", "conditions": "even at 5-fold higher dose"}, "[6]": {"system": "MDA-MB-231 cells", "assay": "cells", "type": "cell-based", "conditions": "Homo sapiens, Doxorubicin dose response alone or combined with Def1 at 20 μM, N=4, unit inferred, read-out: IC50 (Figure 6C)"}, "[7]": {"system": "normal cells", "assay": "Cell viability, normal cells", "type": "cell-based", "conditions": "Figure 6B", "experimental": "as §1"}, "[8]": {"system": "MDA-MB-231R cells", "assay": "Cell death / apoptosis (TUNEL) synergy study, MDA-MB-231R", "type": "cell-based", "conditions": "MsDef1 ~25 μM, Doxorubicin; combination = MsDef1 pretreatment followed by Doxorubicin; N=4", "experimental": "(§2) Doxorubicin resistant MCF-7R and MDA-MB-231R cells were grown in DMEM 10% FBS with increasing concentrations of Doxorubicin as described by Bielawski et al. ([40]). Cells were seeded and exposed to increasing concentrations of Doxorubicin (10 nM to 100 nM). MCF-7 or MDA-MB-231 cells were seeded in cell culture flasks and after 24 h, cells were trypsinized, counted viable cells and reseeded into a new culture flask before adding Doxorubicin again.\n(§3) The percentage of apoptotic cells was determined by using TUNEL assay according to the manufacturer protocol. Briefly, cells were fixed with 1% paraformaldehyde at 4 °C, followed by two washing with PBS. Cold 70% ethanol was added to the cell pellet. Cells were then incubated at −20°C for permeabilization. After washing with PBS, cells were incubated with staining solution containing TdT enzyme and fluorescein-dUTP for 60 min at 37°C. Samples were washed with rinse buffer and resuspended in […] of propidium iodise/RNase solution for flow cytometry analysis."}, "[9]": {"system": "MCF-7R cells", "assay": "Cell death / apoptosis (TUNEL) synergy study, MCF-7R", "type": "cell-based", "conditions": "MsDef1 ~25 μM, Doxorubicin; combination = MsDef1 pretreatment followed by Doxorubicin; N=4", "experimental": "as §2, §3"}, "[10]": {"system": "GlcCer and Trx positive cancer cells", "conditions": "read-out: inhibitory activity IC50 against several cancer cells", "experimental": "as §1"}, "[11]": {"molecular_target": "pepsin (Sus scrofa, UniProt P00791)", "sequence (P00791 60-385)": "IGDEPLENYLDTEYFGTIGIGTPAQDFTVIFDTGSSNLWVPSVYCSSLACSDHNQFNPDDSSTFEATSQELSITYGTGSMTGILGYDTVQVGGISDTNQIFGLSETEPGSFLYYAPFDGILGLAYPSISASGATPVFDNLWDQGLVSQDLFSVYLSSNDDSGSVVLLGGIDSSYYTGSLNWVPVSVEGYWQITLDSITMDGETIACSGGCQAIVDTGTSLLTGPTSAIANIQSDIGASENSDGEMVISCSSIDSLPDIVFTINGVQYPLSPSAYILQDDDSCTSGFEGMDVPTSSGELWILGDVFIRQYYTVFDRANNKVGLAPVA", "conditions": "SGF (200 mg NaCl, 0.2% pepsin, pH 2), 500 μL, 37°C, 2 min preincubation, 25 μL of 5 mg/ml protein, SDS PAGE read-out, n=4", "protocol": "The Simulated Gastric Fluid (SGF) assay was performed as described by Fu et al., 2002 with some modification. Tests were performed in 500 μL of SGF (200 mg NaCl, 0.2% pepsin, pH 2) in glass tubes in a 37°C water bath with continuous stirring of the enzyme reaction. […] Five mg/ml bovine serum albumin (minimum 98%, A-7030, Sigma Aldrich) in ultrapure water was used as the positive control for pepsin digestion. Protein samples were analyzed for degradation by SDS PAGE followed by staining for 1 h and extensive washing with ultrapure water."}},
  "note": "Entries after “also recorded” stand apart in the source; their conditions may differ. Bridges are numbered along the chain shown (N, C = ends). Where no end group is shown, it is not given here.",
  "data": [
    {"compound": "6-((N-(7-nitrobenz-2-oxa-1, 3-diazol-4-yl) amino) hexanoyl -MsDef1 [NBD-MsDef1]", "values": [
      {"measurement": "IC50", "setting": "[1]", "value": 12, "unit": "µM"},
      {"measurement": "cell uptake", "setting": "[2]", "value": "significant uptake"},
      {"measurement": "cell uptake", "setting": "[3]", "value": "significant uptake"},
      {"measurement": "cell uptake", "setting": "[4]", "value": "did not take up"},
      {"measurement": "cell uptake", "setting": "[5]", "value": "did not take up"}
    ]},
    {"compound": "COc1cccc2c1C(=O)c1c(O)c3c(c(O)c1C2=O)C[C@@](O)(C(=O)CO)C[C@@H]3O[C@H]1C[C@H](N)[C@H](O)[C@H](C)O1", "note": "[Doxorubicin]", "values": [
      {"measurement": "IC50", "setting": "[6]", "value": 0.396, "unit": "µM"},
      {"measurement": "dose at which normal cells are killed / still safe", "setting": "[7]", "value": "~ 9.6 μM"},
      {"measurement": "cell death", "setting": "[8]", "value": "~ 30%"},
      {"measurement": "cell death", "setting": "[9]", "value": "~ 30%"}
    ]},
    {"compound": "RTCENLADKYRGPCFSGCDTHCTTKENAVSGRCRDDFRCWCTKRC (disulfide 3-45, 14-33, 18-39, 22-41) [MsDef1]", "values": [
      {"measurement": "IC50", "setting": "[10]", "value": "10 to 15", "unit": "µM"},
      {"measurement": "stability to digestion in SGF", "setting": "[11]", "value": "remained undigested; also recorded: no significant change in the intensity of the bands"}
    ]}
  ]
}
